Like-named read-outs stand apart in the source and are kept apart here.
Legend:
[1] = system: MIA-PaCa-2 pancreatic cancer cell line (KRAS G12C); assay: Cell proliferation assay (CellTiter 96 Aqueous One); assay type: cell-based; details: Homo sapiens; for inhibition at 10 µM: MIA PaCa-2, read-out: % inh cell proliferation (10 μM) in MIA PaCa-2
Summary of the method: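 After overnight attachment, compounds are added (10 μM final or serial dilutions) and left 2–4 days, with viability then measured by MTS.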

[2] = target: Rac-1 (Homo sapiens, UniProt P63000); assay: Ras GTP binding domain inhibition assay (labeled-GTP competition, cell-free); set-up: made in house
Summary of the method: (§1)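 Labeled-GTP competition read out as bound Cy3/Cy5-GTP fluorescence after washes, with 100 nM tracer for 45 min at RT. Before tracer, compounds at 20 μM, or a dilution series for IC50, sat 3 h at RT on the Ni-immobilized His-tagged GTPase. Sos GEF (10-30 μg/mL) was optionally present for the last hour.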

[3] = target: Rho-A (Homo sapiens, UniProt P61586); assay: as above; set-up: made in house
Summary of the method: as §1

[4] = target: KRas wild type (Homo sapiens, UniProt P01116); assay: as above; set-up: made in house
Summary of the method: as §1

[5] = target: T1, KRas G12C mutant (Homo sapiens, UniProt P01116, G12C); assay: as above
T1 construct: made in house
Summary of the method: as §1

[6] = target: T2, KRas Q61H mutant (Homo sapiens, UniProt P01116, Q61H); assay: as above
T2 construct: made in house
Summary of the method: as §1

[7] = target: T3, KRas G12D mutant (Homo sapiens, UniProt P01116, G12D); assay: as above
T3 construct: made in house
Summary of the method: as §1

[8] = system: Akt phosphorylation in Panc-1 cells; assay: Western AKT cell-based phosphorylation assay; set-up: species or system human; details: at 10 μM, values in brackets < > are activation %, not inhibition
Summary of the method: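 Panc-1 cells starved overnight in 0.5% FBS, exposed to compound at 10 μM (0.3% DMSO) for 6 h at 37° C, then stimulated with 1.5 ng/ml EGF for 15 min. Lysates probed by western blot with anti-phospho-Akt (Ser473), equal protein loading checked by Ponceau S.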

[9] = with SOS, read-out: Rac-1 + SOS: % inh.
[10] = without SOS, read-out: Rac-1: % inh.
[11] = with SOS, read-out: Rho-A + SOS: % inh.
[12] = without SOS, read-out: Rho-A: % inh.
[13] = with SOS, read-out: KRas wild type + SOS: % inh.
[14] = without SOS, read-out: KRas wild type: % inh.
[15] = with SOS, read-out: KRas G12C mutant + SOS: % inh.
[16] = without SOS, read-out: KRas G12C mutant: % inh.
[17] = with SOS, read-out: KRas Q61H mutant + SOS: % inh.
[18] = without SOS, read-out: KRas Q61H mutant: % inh.
[19] = with SOS, read-out: KRas G12D mutant + SOS: % inh.
[20] = without SOS, read-out: KRas G12D mutant: % inh.

Row | IC50 ([1]; MIA PaCa-2, MIA PaCa-2) [µM] | inhibition at 20 µM [2, 9] [%] | inhibition at 20 µM [2, 10] [%] | inhibition at 20 µM [3, 11] [%] | inhibition at 20 µM [3, 12] [%] | inhibition at 20 µM [4, 13] [%] | inhibition at 20 µM [4, 14] [%] | inhibition at 20 µM [5, 15] [%] | inhibition at 20 µM [5, 16] [%] | inhibition at 20 µM [6, 17] [%] | inhibition at 20 µM [6, 18] [%] | IC50 ([6]; with SOS) [µM] | inhibition at 20 µM [7, 19] [%] | inhibition at 20 µM [7, 20] [%] | IC50 ([1]; MIA PaCa-2, MIA-PaCa-2, 2-4 days, 10% FBS) [µM] | SMILES | inhibition at 10 µM [1] [%] | % inh of AKT phosphorylation in PANC-1 [8]
1 | 1 to 4.99 | 76 to 100 | 76 to 100 | 76 to 100 | 51 to 75 | 76 to 100 | 51 to 75 | 76 to 100 | 76 to 100 | 76 to 100 | 76 to 100 | 5 to 10 | 76 to 100 | 76 to 100 |  | CO[C@H]1CC[C@@H](Nc2nc(-c3nccn3C)nc3sc(-c4cn(C)cn4)c(-c4ccccc4)c23)C1 (racemic) [Example 3, Rac-N-((1R,3S)-3-methoxycyclopentyl)-2-(1-methyl-1H-imidazol-2-yl)-6-(1-methyl-1H-imidazol-4-yl)-5-phenylthieno[2,3-d]pyrimidin-4-amine] | 76 to 100 | 0 (0% inhibition)
2 | > 10 |  | 0 |  | 0 | 0 | 0 | 1 to 25 | 0 | 26 to 50 | 1 to 25 |  | 1 to 25 | 1 to 25 |  | Cn1nccc1-c1nc(O)c2scc(-c3ccccn3)c2n1 [Compound 91, 2-(1-Methyl-1H-pyrazol-5-yl)-7-(pyridin-2-yl)thieno[3,2-d]pyrimidin-4-ol] | 0 | 0 (0% inhibition)
3 | > 10 |  | 76 to 100 |  | 76 to 100 | 51 to 75 | 51 to 75 | 51 to 75 | 51 to 75 | 51 to 75 | 76 to 100 |  | 51 to 75 | 76 to 100 |  | Cc1cnc(-c2nc(O)c3scc(-c4ccccn4)c3n2)s1 [Compound 92, 2-(5-Methylthiazol-2-yl)-7-(pyridin-2-yl)thieno[3,2-d]pyrimidin-4-ol] | 0 | 0 (0% inhibition)
4 | 5 to 10 |  | 76 to 100 |  | 76 to 100 | 51 to 75 | 51 to 75 | 51 to 75 | 51 to 75 | 51 to 75 | 51 to 75 |  | 76 to 100 | 76 to 100 |  | COCCn1ccnc1-c1nc(O)c2scc(-c3ccncc3)c2n1 [Compound 94, 2-(1-(2-Methoxyethyl)-1H-imidazol-2-yl)-7-(pyridin-4-yl)thieno[3,2-d]pyrimidin-4-ol] | 51 to 75 | 0 (0% inhibition)
5 | > 10 | 76 to 100 | 76 to 100 | 76 to 100 | 76 to 100 | 76 to 100 | 76 to 100 | 76 to 100 | 76 to 100 | 76 to 100 | 76 to 100 |  | 76 to 100 | 76 to 100 |  | COc1nc(-c2nccn2C)nc2c(-c3ncccc3F)csc12 [Compound 95, 7-(3-Fluoropyridin-2-yl)-4-methoxy-2-(1-methyl-1H-imidazol-2-yl)thieno[3,2-d]pyrimidine] | 0 | 0 (0% inhibition)
6 | 1 to 4.99 | 51 to 75 | 51 to 75 | 76 to 100 | 76 to 100 | 76 to 100 | 76 to 100 | 76 to 100 | 76 to 100 | 76 to 100 | 51 to 75 | 1 to 4.99 | 51 to 75 | 51 to 75 |  | CO[C@H]1C[C@@H](Nc2nc(-c3nccn3C)nc3sc(-c4cn(C)cn4)c(-c4ccccc4)c23)C1 [Example 2, N-((1s,3s)-3-methoxycyclobutyl)-2-(1-methyl-1H-imidazol-2-yl)-6-(1-methyl-1H-imidazol-4-yl)-5-phenylthieno[2,3-d]pyrimidin-4-amine] | 51 to 75 | 0 (0% inhibition)

More lines, now with the values behind:

Row | SMILES | IC50 ([1]; MIA PaCa-2, MIA PaCa-2) [µM] | inhibition at 20 µM [2, 9] [%] | inhibition at 20 µM [2, 10] [%] | inhibition at 20 µM [3, 11] [%] | inhibition at 20 µM [3, 12] [%] | inhibition at 20 µM [4, 13] [%] | inhibition at 20 µM [4, 14] [%] | inhibition at 20 µM [5, 15] [%] | inhibition at 20 µM [5, 16] [%] | inhibition at 20 µM [6, 17] [%] | inhibition at 20 µM [6, 18] [%] | IC50 ([6]; with SOS) [µM] | inhibition at 20 µM [7, 19] [%] | inhibition at 20 µM [7, 20] [%] | IC50 ([1]; MIA PaCa-2, MIA-PaCa-2, 2-4 days, 10% FBS) [µM] | inhibition at 10 µM [1] [%] | % inh of AKT phosphorylation in PANC-1 [8]
7 | COc1ccn2c(-c3nc(O)c4scc(-c5ccccn5)c4n3)ncc2c1 [Compound 85, 2-(7-Methoxyimidazo[1,5-a]pyridin-3-yl)-7-(pyridin-2-yl)thieno[3,2-d]pyrimidin-4-ol] | 5 to 10 |  | 51 to 75 |  | 51 to 75 | 1 to 25 | 51 to 75 | 1 to 25 | 26 to 50 | 26 to 50 | 51 to 75 |  | 26 to 50 | 51 to 75 |  | 51 to 75 | 0 (0% inhibition)
8 | COc1ccc2cnc(-c3nc(O)c4scc(-c5ccccn5)c4n3)n2c1 [Compound 86, 2-(6-Methoxyimidazo[1,5-a]pyridin-3-yl)-7-(pyridin-2-yl)thieno[3,2-d]pyrimidin-4-ol] | 5 to 10 |  | 51 to 75 |  | 51 to 75 | 26 to 50 | 51 to 75 | 26 to 50 | 26 to 50 | 51 to 75 | 26 to 50 |  | 51 to 75 | 51 to 75 |  | 51 to 75 | B (26-50% inhibition)
9 | COCCn1c(-c2nc(O)c3scc(-c4ccccn4)c3n2)nc2ccccc21 [Compound 87, 2-(1-(2-Methoxyethyl)-1H-benzo[d]imidazol-2-yl)-7-(pyridin-2-yl)thieno[3,2-d]pyrimidin-4-ol] | 5 to 10 |  | 51 to 75 |  | 51 to 75 | 1 to 25 | 26 to 50 | 1 to 25 | 1 to 25 | 26 to 50 | 1 to 25 |  | 26 to 50 | 51 to 75 | > 3 | 76 to 100 | <A>
10 | Oc1nc(-c2ccncn2)nc2c(-c3ccccn3)csc12 [Compound 88, 7-(Pyridin-2-yl)-2-(pyrimidin-4-yl)thieno[3,2-d]pyrimidin-4-ol] | > 10 |  | 51 to 75 |  | 51 to 75 | 1 to 25 | 26 to 50 | 26 to 50 | 1 to 25 | 26 to 50 | 26 to 50 |  | 26 to 50 | 51 to 75 |  | 26 to 50 | <B>
11 | Oc1nc(-c2cccnc2)nc2c(-c3ccccn3)csc12 [Compound 89, 7-(Pyridin-2-yl)-2-(pyridin-3-yl)thieno[3,2-d]pyrimidin-4-ol] | > 10 |  | 0 |  | 1 to 25 | 0 | 0 | 0 | 0 | 1 to 25 | 1 to 25 |  | 0 | 0 |  | 26 to 50 | 0 (0% inhibition)
12 | Cn1ccc(-c2nc(O)c3scc(-c4ccccn4)c3n2)n1 [Compound 90, 2-(1-Methyl-1H-pyrazol-3-yl)-7-(pyridin-2-yl)thieno[3,2-d]pyrimidin-4-ol] | > 10 |  | 26 to 50 |  | 51 to 75 | 0 | 0 | 1 to 25 | 1 to 25 | 26 to 50 | 1 to 25 |  | 1 to 25 | 26 to 50 |  | 1 to 25 | 0 (0% inhibition)

Reference: patent US20230227466A1, “SUBSTITUTED THIENOPYRIMIDINES THAT INTERACT WITH THE RAS SUPERFAMILY FOR THE TREATMENT OF CANCERS, INFLAMMATORY DISEASES, RASOPATHIES, AND FIBROTIC DISEASE” (SHY Therapeutics, LLC, priority 2020, published 2023)
